Read-outs that look alike come from different tables or passages of the source.
How the values were obtained:
Assay type in all cases: biochemical
EPHA6 = molecular target: T1, EPHA6 (Homo sapiens, UniProt Q9UF33); experiment: 33PanQinase activity assay; conditions: for Residual activity: singlicate
T1 sequence (Q9UF33 23-1036): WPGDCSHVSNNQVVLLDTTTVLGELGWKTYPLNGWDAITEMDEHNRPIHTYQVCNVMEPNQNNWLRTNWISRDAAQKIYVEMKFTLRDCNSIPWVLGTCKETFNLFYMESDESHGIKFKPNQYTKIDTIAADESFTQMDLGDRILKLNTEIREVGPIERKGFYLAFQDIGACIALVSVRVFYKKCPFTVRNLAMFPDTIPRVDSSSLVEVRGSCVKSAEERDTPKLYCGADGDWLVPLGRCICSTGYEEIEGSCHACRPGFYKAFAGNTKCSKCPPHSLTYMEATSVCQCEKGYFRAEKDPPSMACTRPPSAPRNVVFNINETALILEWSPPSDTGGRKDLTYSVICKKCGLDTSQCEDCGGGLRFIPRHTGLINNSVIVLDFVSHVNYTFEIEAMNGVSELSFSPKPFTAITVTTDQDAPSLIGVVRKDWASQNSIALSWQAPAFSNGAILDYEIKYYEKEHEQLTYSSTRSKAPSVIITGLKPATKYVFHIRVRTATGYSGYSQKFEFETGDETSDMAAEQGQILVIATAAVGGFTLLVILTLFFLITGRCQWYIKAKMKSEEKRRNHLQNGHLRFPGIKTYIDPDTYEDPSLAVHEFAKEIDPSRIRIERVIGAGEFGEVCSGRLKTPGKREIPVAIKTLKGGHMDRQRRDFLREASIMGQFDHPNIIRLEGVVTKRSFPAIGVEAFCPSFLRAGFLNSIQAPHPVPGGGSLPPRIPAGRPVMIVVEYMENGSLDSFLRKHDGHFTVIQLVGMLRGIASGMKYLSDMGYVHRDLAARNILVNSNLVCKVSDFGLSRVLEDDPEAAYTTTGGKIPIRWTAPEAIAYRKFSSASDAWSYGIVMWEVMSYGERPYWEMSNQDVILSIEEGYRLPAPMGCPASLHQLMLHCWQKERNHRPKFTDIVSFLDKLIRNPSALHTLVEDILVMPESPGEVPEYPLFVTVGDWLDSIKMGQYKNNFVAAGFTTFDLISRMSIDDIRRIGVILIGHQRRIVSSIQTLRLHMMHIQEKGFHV
Description: (§1) Table S4. Profiling of two compounds at two concentrations against 320 wild-type protein kinases; singlicate measurement; Residual activities (% of control).

MKNK1 = MKNK1 (Homo sapiens, UniProt Q9BUB5); experiment: 33PanQinase activity assay; conditions: for Residual activity: singlicate
Description: as §1

EPHB2 = molecular target: T2, EPHB2 (Homo sapiens, UniProt P29323); experiment: 33PanQinase activity assay; conditions: for Residual activity: singlicate
T2 sequence (P29323 19-1055): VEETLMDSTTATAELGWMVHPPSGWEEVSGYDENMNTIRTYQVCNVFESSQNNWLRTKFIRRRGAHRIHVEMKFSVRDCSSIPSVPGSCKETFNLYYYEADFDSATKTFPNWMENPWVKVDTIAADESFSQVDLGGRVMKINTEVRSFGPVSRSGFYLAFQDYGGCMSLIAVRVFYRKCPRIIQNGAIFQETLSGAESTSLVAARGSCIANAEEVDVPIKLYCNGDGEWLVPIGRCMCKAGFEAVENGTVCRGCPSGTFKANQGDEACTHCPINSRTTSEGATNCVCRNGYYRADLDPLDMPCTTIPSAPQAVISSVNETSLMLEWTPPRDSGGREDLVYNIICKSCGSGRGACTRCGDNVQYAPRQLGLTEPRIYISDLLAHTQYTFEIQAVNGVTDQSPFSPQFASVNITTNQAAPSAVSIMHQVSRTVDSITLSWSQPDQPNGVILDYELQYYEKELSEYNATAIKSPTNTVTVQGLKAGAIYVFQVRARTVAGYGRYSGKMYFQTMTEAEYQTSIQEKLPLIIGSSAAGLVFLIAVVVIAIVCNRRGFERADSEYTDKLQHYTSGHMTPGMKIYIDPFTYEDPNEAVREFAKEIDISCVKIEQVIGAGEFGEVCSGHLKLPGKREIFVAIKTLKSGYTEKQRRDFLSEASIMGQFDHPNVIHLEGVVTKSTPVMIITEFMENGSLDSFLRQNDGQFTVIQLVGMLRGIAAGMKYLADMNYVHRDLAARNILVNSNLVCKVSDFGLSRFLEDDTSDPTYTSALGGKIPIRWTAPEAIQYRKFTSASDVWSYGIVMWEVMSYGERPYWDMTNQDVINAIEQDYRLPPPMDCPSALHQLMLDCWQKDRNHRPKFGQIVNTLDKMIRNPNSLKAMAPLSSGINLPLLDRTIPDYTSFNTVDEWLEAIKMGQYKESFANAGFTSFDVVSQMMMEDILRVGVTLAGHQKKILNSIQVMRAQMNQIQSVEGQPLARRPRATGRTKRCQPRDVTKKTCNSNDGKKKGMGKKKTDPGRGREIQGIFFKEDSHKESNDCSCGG
Description: as §1

ERBB4 = ERBB4 (Homo sapiens, UniProt Q15303); experiment: 33PanQinase activity assay; conditions: for Residual activity: singlicate
Description: as §1

Aurora-C = molecular target: T3, Aurora-C (Homo sapiens, UniProt Q9UQB9); experiment: 33PanQinase activity assay; conditions: for Residual activity: Aurora-C, singlicate
T3 sequence (Q9UQB9 1-309): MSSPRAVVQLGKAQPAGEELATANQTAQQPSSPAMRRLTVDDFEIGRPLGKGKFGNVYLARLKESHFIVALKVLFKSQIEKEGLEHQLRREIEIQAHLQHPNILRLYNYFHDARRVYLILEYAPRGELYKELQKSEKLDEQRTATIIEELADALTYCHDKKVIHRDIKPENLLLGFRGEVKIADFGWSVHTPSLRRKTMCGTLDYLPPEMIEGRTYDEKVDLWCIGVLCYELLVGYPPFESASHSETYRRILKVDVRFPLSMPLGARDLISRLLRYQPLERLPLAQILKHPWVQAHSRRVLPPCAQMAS
Description: as §1

[1] = molecular target: 320 wild-type protein kinases (Homo sapiens, UniProt Q9NQU5); conditions: singlicate
Description: as §1

[2] = molecular target: 320 wild-type protein kinases (Homo sapiens, UniProt P41279); conditions: COT, singlicate
Description: as §1

[3] = molecular target: 320 wild-type protein kinases (Homo sapiens, UniProt Q05397); conditions: singlicate
Description: as §1

320 wild-type protein kinases (Homo sapiens, UniProt Q05397), sequence (Q05397 whole entry): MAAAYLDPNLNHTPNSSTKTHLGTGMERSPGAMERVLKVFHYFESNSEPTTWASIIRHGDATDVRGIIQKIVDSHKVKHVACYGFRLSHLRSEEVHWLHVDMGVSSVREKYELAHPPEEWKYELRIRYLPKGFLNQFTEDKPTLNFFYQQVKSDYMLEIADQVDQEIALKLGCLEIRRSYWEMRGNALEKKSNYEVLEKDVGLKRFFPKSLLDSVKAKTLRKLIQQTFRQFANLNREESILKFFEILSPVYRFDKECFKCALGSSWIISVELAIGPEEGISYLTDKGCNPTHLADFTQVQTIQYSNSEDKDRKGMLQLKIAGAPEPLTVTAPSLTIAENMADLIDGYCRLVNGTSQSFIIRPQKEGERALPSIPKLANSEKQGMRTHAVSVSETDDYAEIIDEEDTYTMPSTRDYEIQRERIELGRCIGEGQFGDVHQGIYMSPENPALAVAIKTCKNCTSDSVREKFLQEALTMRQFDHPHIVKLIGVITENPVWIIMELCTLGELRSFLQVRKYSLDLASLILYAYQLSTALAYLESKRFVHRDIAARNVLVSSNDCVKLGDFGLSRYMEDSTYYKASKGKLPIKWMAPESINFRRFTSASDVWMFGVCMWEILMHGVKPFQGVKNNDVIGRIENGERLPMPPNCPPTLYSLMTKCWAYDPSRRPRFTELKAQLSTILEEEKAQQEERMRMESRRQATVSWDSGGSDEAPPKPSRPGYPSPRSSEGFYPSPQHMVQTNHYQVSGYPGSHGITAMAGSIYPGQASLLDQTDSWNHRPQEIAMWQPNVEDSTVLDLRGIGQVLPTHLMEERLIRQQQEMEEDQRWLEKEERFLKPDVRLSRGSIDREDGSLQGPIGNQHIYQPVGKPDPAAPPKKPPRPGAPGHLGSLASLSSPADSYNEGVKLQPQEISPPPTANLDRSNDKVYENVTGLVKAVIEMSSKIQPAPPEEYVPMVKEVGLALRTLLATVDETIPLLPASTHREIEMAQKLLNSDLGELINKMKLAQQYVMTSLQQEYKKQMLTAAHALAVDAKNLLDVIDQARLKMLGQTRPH
320 wild-type protein kinases (Homo sapiens, UniProt P41279), sequence (P41279 whole entry): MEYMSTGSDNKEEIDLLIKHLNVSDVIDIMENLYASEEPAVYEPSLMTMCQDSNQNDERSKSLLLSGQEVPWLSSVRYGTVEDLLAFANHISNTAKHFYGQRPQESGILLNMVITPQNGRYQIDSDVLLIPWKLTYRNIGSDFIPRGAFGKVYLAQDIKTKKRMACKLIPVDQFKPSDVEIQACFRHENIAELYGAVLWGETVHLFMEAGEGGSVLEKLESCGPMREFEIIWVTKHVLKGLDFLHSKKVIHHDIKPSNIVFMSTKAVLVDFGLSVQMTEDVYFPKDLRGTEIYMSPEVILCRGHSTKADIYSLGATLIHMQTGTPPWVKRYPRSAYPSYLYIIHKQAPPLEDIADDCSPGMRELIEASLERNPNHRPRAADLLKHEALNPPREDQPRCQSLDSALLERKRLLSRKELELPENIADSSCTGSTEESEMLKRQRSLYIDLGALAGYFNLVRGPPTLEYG
320 wild-type protein kinases (Homo sapiens, UniProt Q9NQU5), sequence (Q9NQU5 whole entry): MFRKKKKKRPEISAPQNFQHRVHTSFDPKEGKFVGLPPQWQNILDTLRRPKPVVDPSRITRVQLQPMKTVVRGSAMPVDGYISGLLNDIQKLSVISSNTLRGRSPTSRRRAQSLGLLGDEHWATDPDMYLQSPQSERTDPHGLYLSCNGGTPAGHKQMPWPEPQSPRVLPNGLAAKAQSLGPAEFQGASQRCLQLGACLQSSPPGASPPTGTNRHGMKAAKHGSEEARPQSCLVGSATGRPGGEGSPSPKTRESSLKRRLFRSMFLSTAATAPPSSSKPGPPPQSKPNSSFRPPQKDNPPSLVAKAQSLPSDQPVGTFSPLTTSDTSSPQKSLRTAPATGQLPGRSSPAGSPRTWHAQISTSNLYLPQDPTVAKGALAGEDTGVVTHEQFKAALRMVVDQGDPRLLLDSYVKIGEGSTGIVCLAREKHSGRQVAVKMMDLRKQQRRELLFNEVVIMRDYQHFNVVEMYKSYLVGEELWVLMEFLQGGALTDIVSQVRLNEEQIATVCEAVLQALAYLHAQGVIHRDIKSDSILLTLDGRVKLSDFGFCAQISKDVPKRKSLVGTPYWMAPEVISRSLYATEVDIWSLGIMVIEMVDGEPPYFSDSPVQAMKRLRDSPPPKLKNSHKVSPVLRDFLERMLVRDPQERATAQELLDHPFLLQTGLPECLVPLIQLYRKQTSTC
MKNK1, sequence (Q9BUB5 whole entry): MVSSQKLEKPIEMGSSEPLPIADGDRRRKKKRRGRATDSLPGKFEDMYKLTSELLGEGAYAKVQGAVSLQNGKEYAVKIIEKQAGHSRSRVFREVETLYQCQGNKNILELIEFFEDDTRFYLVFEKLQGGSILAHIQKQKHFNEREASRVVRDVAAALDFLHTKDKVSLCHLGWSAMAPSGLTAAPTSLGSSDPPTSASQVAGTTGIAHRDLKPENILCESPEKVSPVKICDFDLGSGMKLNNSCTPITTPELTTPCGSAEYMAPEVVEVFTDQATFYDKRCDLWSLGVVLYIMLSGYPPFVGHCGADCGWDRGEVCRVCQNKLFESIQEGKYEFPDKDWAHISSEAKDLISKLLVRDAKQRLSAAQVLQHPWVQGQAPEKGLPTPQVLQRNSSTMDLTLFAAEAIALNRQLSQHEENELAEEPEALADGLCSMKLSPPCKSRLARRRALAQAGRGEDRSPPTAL
ERBB4, sequence (Q15303 26-1308): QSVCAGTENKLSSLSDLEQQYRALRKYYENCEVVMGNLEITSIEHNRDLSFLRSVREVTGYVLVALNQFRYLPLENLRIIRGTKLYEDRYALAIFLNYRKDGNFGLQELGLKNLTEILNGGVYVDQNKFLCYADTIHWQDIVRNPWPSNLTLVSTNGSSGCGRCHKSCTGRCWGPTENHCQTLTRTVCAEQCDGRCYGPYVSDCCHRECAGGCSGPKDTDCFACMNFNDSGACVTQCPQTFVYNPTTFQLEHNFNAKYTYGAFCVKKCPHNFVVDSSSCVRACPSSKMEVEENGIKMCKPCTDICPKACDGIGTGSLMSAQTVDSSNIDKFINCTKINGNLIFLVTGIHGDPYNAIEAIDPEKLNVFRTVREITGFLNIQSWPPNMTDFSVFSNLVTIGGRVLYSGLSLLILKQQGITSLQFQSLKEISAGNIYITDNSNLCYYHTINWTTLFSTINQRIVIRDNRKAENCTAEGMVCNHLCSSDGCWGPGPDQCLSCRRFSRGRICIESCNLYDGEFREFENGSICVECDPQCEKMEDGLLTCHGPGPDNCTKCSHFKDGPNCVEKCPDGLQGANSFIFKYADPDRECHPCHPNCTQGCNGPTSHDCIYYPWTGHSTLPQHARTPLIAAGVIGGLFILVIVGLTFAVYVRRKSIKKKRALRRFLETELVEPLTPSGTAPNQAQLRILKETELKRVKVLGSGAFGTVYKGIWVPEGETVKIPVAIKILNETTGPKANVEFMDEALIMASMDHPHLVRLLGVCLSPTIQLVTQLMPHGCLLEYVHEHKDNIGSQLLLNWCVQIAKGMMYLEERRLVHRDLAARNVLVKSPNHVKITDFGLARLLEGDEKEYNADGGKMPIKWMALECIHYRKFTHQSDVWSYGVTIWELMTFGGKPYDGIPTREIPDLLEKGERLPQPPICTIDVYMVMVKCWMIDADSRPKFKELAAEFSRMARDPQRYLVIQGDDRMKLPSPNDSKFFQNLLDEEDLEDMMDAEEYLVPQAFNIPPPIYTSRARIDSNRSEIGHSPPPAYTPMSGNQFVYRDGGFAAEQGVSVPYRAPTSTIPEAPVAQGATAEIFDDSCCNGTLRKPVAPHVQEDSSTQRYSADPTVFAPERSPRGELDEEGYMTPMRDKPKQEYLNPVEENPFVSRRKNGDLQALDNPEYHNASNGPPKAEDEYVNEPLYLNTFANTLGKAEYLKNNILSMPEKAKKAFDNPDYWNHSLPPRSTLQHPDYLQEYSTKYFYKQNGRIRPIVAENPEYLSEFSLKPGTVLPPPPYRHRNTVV

| SMILES | Residual activity (EPHA6; EPHA6, 1.0E-06 M) | Residual activity (EPHA6; EPHA6, 1.0E-07 M) | Residual activity (MKNK1; MKNK1, 1.0E-06 M) | Residual activity (MKNK1; MKNK1, 1.0E-07 M) | Residual activity (EPHB2; EPHB2, 1.0E-06 M) | Residual activity (EPHB2; EPHB2, 1.0E-07 M) | Residual activity (ERBB4; ERBB4, 1.0E-06 M) | Residual activity (ERBB4; ERBB4, 1.0E-07 M) | Residual activity (Aurora-C; 1.0E-06 M) | Residual activity (Aurora-C; 1.0E-07 M) | Residual activity ([1]; PAK6, 1.0E-06 M) | Residual activity ([1]; PAK6, 1.0E-07 M) | Residual activity ([2]; 1.0E-06 M) | Residual activity ([2]; 1.0E-07 M) | Residual activity ([3]; FAK aa2-1052, 1.0E-06 M) | Residual activity ([3]; FAK aa2-1052, 1.0E-07 M) | also measured |
| --- | --- | --- | --- | --- | --- | --- | --- | --- | --- | --- | --- | --- | --- | --- | --- | --- | --- |
| C#Cc1cc(Nc2ncnc3cc(I)ccc23)ccc1Cl [Compound 41] | 75 % of control | 94 % of control | 63 % of control | 79 % of control | 58 % of control | 79 % of control | 44 % of control | 92 % of control | 70 % of control | 89 % of control | 88 % of control | 97 % of control | 91 % of control | 91 % of control | 106 % of control | 138 % of control | ERBB4 inhibition (ERBB4; 10 μM): > 50% |
| C#Cc1cc(Nc2ncnc3cc(OC)c(OC)cc23)ccc1Cl [Compound 45] | 35 % of control | 89 % of control | 30 % of control | 63 % of control | 11 % of control | 50 % of control | 7 % of control | 34 % of control | 85 % of control | 98 % of control | 87 % of control | 98 % of control | 123 % of control | 98 % of control | 95 % of control | 109 % of control | EPHA6 inhibition (EPHA6; 10 μM): > 50%; MKNK1 inhibition (MKNK1; 10 μM): > 50%; EPHB2 inhibition (EPHB2; 10 μM): > 50%; ERBB4 inhibition (ERBB4; 1 μM): moderate inhibition; Aurora-C inhibition (Aurora-C; 10 μM): > 50% |

— PMC9329436, “Optimization of the 4-anilinoquin(az)oline scaffold as epidermal growth factor receptor (EGFR) inhibitors for chordoma utilizing a toxicology profiling assay platform” (Scientific Reports, 2022)
